Results taken from ChEMBL document CHEMBL3885861, “Open TG-GATES”.

Species on record: Rattus norvegicus
Test: Open TG-GATES - Regimen: Single
Format: toxicity, organism-based, Sprague-Dawley
Parameters: regimen Single, gender Male, age 6 weeks
Details: in vivo, po, 10 mg/kg, route gavage, dose level Low; for APTT / Bas / Eos / Fbg / Hb / Ht / Lym / MCH / MCHC / MCV / Mono / Neu / PT / Plat / RBC / Ret / WBC: tissue Blood; for KIDNEY_L / KIDNEY_R / KIDNEY_TOTAL: tissue Kidney; for LIVER: tissue Liver; for A/G / ALP / ALT / AST / BUN / CRE / Ca / Cl / DBIL / GLC / IP / K / LDH / Na / PL / RALB / TBIL / TC / TG / TP / gamma-GTP: tissue Plasma

CC1=C(/C=C/C(C)=C/C=C/C(C)=C/CO)C(C)(C)CCC1 [RETINOL]
TERMINAL_BW (3 h): 201.8 g
APTT (3 h): 21.9 s
Bas (3 h): 0%
Eos (3 h): 0.8%
Fbg (3 h): 307.4 mg/dL
Hb (3 h): 13.1 g/dL
Ht (3 h): 37.7%
Lym (3 h): 81.4%
MCH (3 h): 21.5 pg
MCHC (3 h): 34.6%
MCV (3 h): 62.2 fL
Mono (3 h): 2.6%
Neu (3 h): 14.8%
PT (3 h): 15.9 s
Plat (3 h): 124.2 x10_4/uL
RBC (3 h): 606.4 x10_4/ul
Ret (3 h): 8.8%
WBC (3 h): 95.9 x10_2/uL
KIDNEY_L (3 h): 0.9 g
KIDNEY_R (3 h): 0.9 g
KIDNEY_TOTAL (3 h): 1.8 g
LIVER (3 h): 9.3 g
A/G (3 h): 1.3
ALP (3 h): 1940 IU/L
ALT (3 h): 41.2 IU/L
AST (3 h): 75.2 IU/L
BUN (3 h): 13.4 mg/dL
CRE (3 h): 0.1 mg/dL
Ca (3 h): 10.8 mg/dL
Cl (3 h): 106.6 meq/L
DBIL (3 h): 0 mg/dL
GLC (3 h): 171.6 mg/dL
IP (3 h): 8.6 mg/dL
K (3 h): 4.1 meq/L
LDH (3 h): 253.6 IU/L
Na (3 h): 141.6 meq/L
PL (3 h): 160.6 mg/dL
RALB (3 h): 3.2 g/dL
TBIL (3 h): 0.006 mg/dL
TC (3 h): 81.2 mg/dL
TG (3 h): 123.4 mg/dL
TP (3 h): 5.6 g/dL
gamma-GTP (3 h): 2.2 IU/L
TERMINAL_BW (6 h): 200 g
APTT (6 h): 21 s
Bas (6 h): 0%
Eos (6 h): 1%
Fbg (6 h): 312 mg/dL
Hb (6 h): 13.5 g/dL
Ht (6 h): 39.4%
Lym (6 h): 80.4%
MCH (6 h): 21.4 pg
MCHC (6 h): 34.3%
MCV (6 h): 62.3 fL
Mono (6 h): 2.6%
Neu (6 h): 15.4%
PT (6 h): 15.6 s
Plat (6 h): 119.1 x10_4/uL
RBC (6 h): 632.2 x10_4/ul
Ret (6 h): 8.1%
WBC (6 h): 81.2 x10_2/uL
KIDNEY_L (6 h): 0.9 g
KIDNEY_R (6 h): 0.9 g
KIDNEY_TOTAL (6 h): 1.9 g
LIVER (6 h): 8.6 g
A/G (6 h): 1.3
ALP (6 h): 1760 IU/L
ALT (6 h): 35.8 IU/L
AST (6 h): 69.2 IU/L
BUN (6 h): 9.4 mg/dL
CRE (6 h): 0.1 mg/dL
Ca (6 h): 11 mg/dL
Cl (6 h): 107.4 meq/L
DBIL (6 h): 0.008 mg/dL
GLC (6 h): 180 mg/dL
IP (6 h): 10.3 mg/dL
K (6 h): 4.3 meq/L
LDH (6 h): 223 IU/L
Na (6 h): 142.8 meq/L
PL (6 h): 143.8 mg/dL
RALB (6 h): 3.1 g/dL
TBIL (6 h): 0.016 mg/dL
TC (6 h): 74.4 mg/dL
TG (6 h): 98.4 mg/dL
TP (6 h): 5.4 g/dL
gamma-GTP (6 h): 0.8 IU/L
TERMINAL_BW (9 h): 196.8 g
APTT (9 h): 21.8 s
Bas (9 h): 0%
Eos (9 h): 0.6%
Fbg (9 h): 296.8 mg/dL
Hb (9 h): 13.2 g/dL
Ht (9 h): 38.3%
Lym (9 h): 78%
MCH (9 h): 21.6 pg
MCHC (9 h): 34.4%
MCV (9 h): 62.9 fL
Mono (9 h): 2.4%
Neu (9 h): 18.4%
PT (9 h): 15.6 s
Plat (9 h): 128.6 x10_4/uL
RBC (9 h): 610.2 x10_4/ul
Ret (9 h): 7.6%
WBC (9 h): 92.3 x10_2/uL
KIDNEY_L (9 h): 0.9 g
KIDNEY_R (9 h): 0.9 g
KIDNEY_TOTAL (9 h): 1.8 g
LIVER (9 h): 7.8 g
A/G (9 h): 1.3
ALP (9 h): 1939.6 IU/L
ALT (9 h): 34.8 IU/L
AST (9 h): 70.6 IU/L
BUN (9 h): 9.6 mg/dL
CRE (9 h): 0.1 mg/dL
Ca (9 h): 10.9 mg/dL
Cl (9 h): 107.4 meq/L
DBIL (9 h): 0.004 mg/dL
GLC (9 h): 187 mg/dL
IP (9 h): 10.6 mg/dL
K (9 h): 4 meq/L
LDH (9 h): 242.8 IU/L
Na (9 h): 141.4 meq/L
PL (9 h): 127.4 mg/dL
RALB (9 h): 3 g/dL
TBIL (9 h): 0.012 mg/dL
TC (9 h): 69.2 mg/dL
TG (9 h): 50.2 mg/dL
TP (9 h): 5.3 g/dL
gamma-GTP (9 h): 2.8 IU/L
TERMINAL_BW (24 h): 208.4 g
APTT (24 h): 21.5 s
Bas (24 h): 0%
Eos (24 h): 1%
Fbg (24 h): 273.4 mg/dL
Hb (24 h): 13.2 g/dL
Ht (24 h): 38.4%
Lym (24 h): 80.2%
MCH (24 h): 21.4 pg
MCHC (24 h): 34.5%
MCV (24 h): 62.2 fL
Mono (24 h): 3.2%
Neu (24 h): 15%
PT (24 h): 16.2 s
Plat (24 h): 123.1 x10_4/uL
RBC (24 h): 618 x10_4/ul
Ret (24 h): 7.5%
WBC (24 h): 81 x10_2/uL
KIDNEY_L (24 h): 1 g
KIDNEY_R (24 h): 1 g
KIDNEY_TOTAL (24 h): 2 g
LIVER (24 h): 9.8 g
A/G (24 h): 1.4
ALP (24 h): 1455.4 IU/L
ALT (24 h): 44.6 IU/L
AST (24 h): 78.4 IU/L
BUN (24 h): 16.8 mg/dL
CRE (24 h): 0.2 mg/dL
Ca (24 h): 10.6 mg/dL
Cl (24 h): 106.8 meq/L
DBIL (24 h): 0.002 mg/dL
GLC (24 h): 187.4 mg/dL
IP (24 h): 6.9 mg/dL
K (24 h): 4.5 meq/L
LDH (24 h): 318.8 IU/L
Na (24 h): 141.6 meq/L
PL (24 h): 135.2 mg/dL
RALB (24 h): 3.1 g/dL
TBIL (24 h): 0.002 mg/dL
TC (24 h): 65 mg/dL
TG (24 h): 114.6 mg/dL
TP (24 h): 5.4 g/dL
gamma-GTP (24 h): 1.6 IU/L
